How the values were obtained:
[1] = 5-Cycle Oxidative Hair Treatment Protocol with FT-IR Damage Assessing Protocol; parameters: species or system human; settings: for Damage after 5 cycles (cysteic acid units) / Damage benefit vs EDTA 2%: 5 bleaching cycles, pH 10, 1.9% EDDS, 2.0% HEDP, 2.65% DTPA, 3.8% DTPMP; for Damage after 5 cycles (cysteic acid units): 2% EDTA, sodium salts used; for oxidative hair damage prevention (in words): real conditions of use: pH 10, non-deionized water with Cu^2+ and Ca^2+
Experimental: A bleaching composition comprising the chelant to be tested is prepared by mixing in equal weight amounts a hydrogen peroxide emulsion base and an alkaline (high pH) emulsion base. The hydrogen peroxide emulsion base contains: […] 2 g of the bleaching composition per g of hair to be treated was applied on the hair switches and massaged in thoroughly. The hair switches were then wrapped in a plastic film and put in an oven at 30° C. […] The excess water was then squeezed out of the hair, and the hair dried with a fan. […] Prell® shampoo was using during these tests. This Oxidative Hair Treatment Protocol can be repeated several times. When damage is measured according to the FT-IR Damage Assessing Protocol (described below) the Oxidative Hair Treatment Protocol is preferably repeated 5 times and this process is described as a 5-Cycle Oxidative Hair Treatment Protocol. Damage caused to the hair was assessed by the FT-IR (Fourier Transform Infrared) method, which has been established to be suitable for studying the effects of oxidative treatments on hair (Strassburger, J., J. Soc. Cosmet. Chem., 36, 61-74 (1985); Joy, M. & Lewis, D. M., Int. J. Cosmet. Sci., 13, 249-261 (1991); Signori, V. & Lewis, D. M., Int. J. Cosmet. Sci., 19, 1-13 (1997)). In particular, these authors have shown that the method is suitable for quantifying the amount of cysteic acid that is produced from the oxidation of cystine. In general, the oxidation of cystine is thought to be a suitable marker by which to monitor the overall oxidation of the keratinous part of the fiber. Signori & Lewis (D. M., Int. J. Cosmet. […] They have shown that this technique is more suitable than using the FT-IR method in simple transmission or microscope modes. […] The detailed description of the method used for testing the different damage inhibitors follows thereafter: […] In this method, hair switches of various sizes and colours can be used. The switches were […] per cm) in order to minimize variations in surface area of contact between readings. The Oxidative Hair Treatment Protocol described above was repeated for 5 cycles to mimic the behavior of hair after repeated bleaching cycles. Following this treatment, four readings per switch were taken ( 1/3 and 2/3s down the switch on both sides), and an average calculated. Backgrounds were collected every 4 readings, and an ATR cell pressure of IN/m was employed. The cell was cleaned with ethanol between each reading, and a contamination check performed using the monitor ratio mode of the instrument. As prescribed by Signori & Lewis in 1997, a normalized double derivative analysis routine was used. […] This normalized absorbance was then twice derivatised using a 13 point averaging. […] The following instrumental conditions were employed: […] The corresponding weight percentage is indicated in the first line of the table below. The tri-sodium salt of EDDS, tetra-sodium salt of EDTA, di-sodium salt of HEDP, penta-sodium salt of DTPA and tetra-sodium salt of DTPMP were used. EDTA and DTPA are commonly used in hair care compositions. HEDP was cited in U.S. Pat. […] DPTMP is another phosphonate chelant. […] Damage and lightening effects were assessed after 5 cycles according to the test method described above (“Oxidative hair treatment protocol”). Human hair is often bleached or dyed 5 times or more during its life, which makes this 5 cycle test very meaningful.

[2] = Hydrogen Peroxide Decomposition Ratio Measurement Protocol
Experimental: The Hydrogen Peroxide Decomposition Ratio Measurement Protocol is defined as follows: 6.0% by weight of concentrated ammonium hydroxide (30% active ammonia) is added to deionised water and the pH of the solution is adjusted to 10 using acetic acid. 300 ppm of copper sulphate and 0.026M of the chelant to be tested are added to said composition. […] The initial level of hydrogen peroxide is measured at this moment (t=0); the final level of hydrogen peroxide is measured after 30 minutes. The value of the ratio of the hydrogen peroxide concentration at t=0 and at t=30 mn is the Hydrogen Peroxide Decomposition Ratio (% Loss).
The initial and final level of hydrogen peroxide can be measured according to any standard technique. The following is a well-known and standard technique that was used by the inventors: 0.2-0.3 g (the exact quantity being precisely measured) of the solution to be titrated is added to 40 ml of 10% acetic acid. […] The level of hydrogen peroxide (% Peroxide) is then calculated from the following equation: [formula]
Three replicate runs are made at both t=0 and t=30 mn and then averaged to calculate the Hydrogen Peroxide Decomposition Ratio (% Loss).

[3] = 1:1 complexes, fully deprotonated chelants; 25deg, 0.1M ionic strength; cited from earlier work
[4] = log Conditional Stability Constant at pH 10 with Cu; type: physicochemical
Text: The Conditional Stability Constant is a parameter commonly used in the art to practically assess the stability of metal-chelant complex at a given pH.

[5] = 1:1 complexes, fully deprotonated chelants; 25deg, 0.1M ionic strength; cited from earlier work; remark: listed apart in the source

Compound	Damage after 5 cycles (cysteic acid units) [1] [cysteic acid units]	Damage benefit vs EDTA 2% [1]	oxidative hair damage prevention (in words) [1]	Hydrogen Peroxide Decomposition Ratio (% Loss) ([2]; pH 10, 300 ppm copper sulphate, 0.026M chelant, 30 minutes) [%]	log K Cu [3]	Ratio Cu/Ca (log KCuL/log KCaL) [4]	log K Ca [5]	log Conditional Stability Constant (pH 10) Cu [4]	capacity at inhibiting the red-ox chemistry of copper (in words) [2]
O=C(O)CC(NCCNC(CC(=O)O)C(=O)O)C(=O)O (stereo not drawn) [EDDS, ethylenediamine-N,N′-disuccinic acid]	110	+33%	much less damage than hair treated with any other chelant	1.5	18.35	3.76	4.58		
diethylenetriaminepentaacetate [DTPA]	147	+11%			21.4	1.85	10.75	18.78	
O=C(O)CN(CCN(CC(=O)O)CC(=O)O)CC(=O)O [EDTA, ethylenediaminetetraacetic acid]			very poor damage prevention properties		18.78		10.65		very good capacity at inhibiting the red-ox chemistry of copper
O=P(O)(O)CN(CCN(CP(=O)(O)O)CP(=O)(O)O)CCN(CP(=O)(O)O)CP(=O)(O)O [DTPMP, diethylenetriamine-N,N,N′,N″,N″-penta(methylene phosphonate)]		+14%			19.5		7.1		
CC(O)(P(=O)(O)O)P(=O)(O)O [HEDP, 1-hydroxyethane-1,1-diphosphonic acid]		+1%			11.84	1.75	6.0		
